Source: PMC3368905, “Inhibition of Ion Channels and Heart Beat in Drosophila by Selective COX-2 Inhibitor SC-791” (PLoS ONE, 2012)

Target: T1, Shab channel (IKS, delayed rectifier, Drosophila Kv2) (Drosophila melanogaster, UniProt P17970)
T1 construct: native channel in larval body-wall muscles (fiber 12)
T1 sequence (P17970 1-1015): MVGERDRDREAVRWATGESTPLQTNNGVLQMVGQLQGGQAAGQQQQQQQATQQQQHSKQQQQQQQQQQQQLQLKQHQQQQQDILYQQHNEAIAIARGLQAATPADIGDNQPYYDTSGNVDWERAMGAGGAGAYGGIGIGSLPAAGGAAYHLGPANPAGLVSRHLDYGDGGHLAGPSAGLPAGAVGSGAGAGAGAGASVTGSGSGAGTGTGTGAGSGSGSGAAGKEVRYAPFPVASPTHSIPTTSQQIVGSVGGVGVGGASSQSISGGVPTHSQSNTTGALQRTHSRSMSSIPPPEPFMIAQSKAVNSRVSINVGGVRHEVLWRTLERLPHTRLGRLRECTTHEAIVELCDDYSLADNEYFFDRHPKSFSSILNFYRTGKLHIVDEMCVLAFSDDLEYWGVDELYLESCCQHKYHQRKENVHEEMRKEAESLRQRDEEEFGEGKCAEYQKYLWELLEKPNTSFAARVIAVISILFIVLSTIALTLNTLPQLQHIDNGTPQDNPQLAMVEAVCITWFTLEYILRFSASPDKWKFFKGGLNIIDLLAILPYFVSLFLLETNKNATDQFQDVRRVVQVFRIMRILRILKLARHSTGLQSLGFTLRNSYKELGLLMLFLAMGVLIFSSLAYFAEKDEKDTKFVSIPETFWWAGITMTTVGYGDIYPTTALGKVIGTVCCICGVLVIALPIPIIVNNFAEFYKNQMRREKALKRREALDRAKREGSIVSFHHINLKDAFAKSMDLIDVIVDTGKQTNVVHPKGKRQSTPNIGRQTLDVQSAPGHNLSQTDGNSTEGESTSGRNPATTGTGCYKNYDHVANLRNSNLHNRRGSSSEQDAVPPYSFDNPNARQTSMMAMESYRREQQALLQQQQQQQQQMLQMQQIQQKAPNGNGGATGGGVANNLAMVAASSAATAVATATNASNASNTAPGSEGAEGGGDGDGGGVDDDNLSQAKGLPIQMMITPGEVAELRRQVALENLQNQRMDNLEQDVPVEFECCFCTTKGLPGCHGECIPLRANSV
Test: two-microelectrode voltage clamp of native IKS in larval muscle
Type: cell-based

SMILES: NS(=O)(=O)c1ccc(-c2c(-c3ccccc3)noc2C(F)F)cc1 [SC-791]
- IC50: 21 µM
